Source: PubChem BioAssay (NCI)
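Cultured in 96-well plates, cells were exposed to test compound for 48 hours across five concentrations. TGI denotes the concentration required for complete inhibition of growth.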

Assays:
Test in all cases: NCI-60 cell line screen, 48 h
CAKI-1 renal = test system: CAKI-1 renal
HCC-2998 colon = test system: HCC-2998 colon
HL-60(TB) leukemia = test system: HL-60(TB) leukemia
MDA-MB-231 breast = test system: MDA-MB-231 breast
MDA-N = test system: MDA-N
NCI-H23 lung = test system: NCI-H23 lung
NCI-H522 lung = test system: NCI-H522 lung
OVCAR-3 ovarian = test system: OVCAR-3 ovarian
SK-MEL-28 melanoma = test system: SK-MEL-28 melanoma
UACC-257 melanoma = test system: UACC-257 melanoma

Row | SMILES | TGI (CAKI-1 renal) [µM] | TGI (HCC-2998 colon) [µM] | TGI (HL-60(TB) leukemia) [µM] | TGI (MDA-MB-231 breast) [µM] | TGI (MDA-N) [µM] | TGI (NCI-H23 lung) [µM] | TGI (NCI-H522 lung) [µM] | TGI (OVCAR-3 ovarian) [µM] | TGI (SK-MEL-28 melanoma) [µM] | TGI (UACC-257 melanoma) [µM]
1 | O=C1NC(SSC2=NNC3(C(=O)N2)c2ccccc2-c2ccccc23)=NNC12c1ccccc1-c1ccccc12 | > 10 | > 10 | > 10 | > 10 | > 10 | > 10 | > 10 | > 10 | > 10 | > 10
2 | CC[C@H](O)[C@H](C)C=C1SCCCS1 | > 100 | > 100 | 89.7 | > 100 | > 100 | > 100 | > 100 | > 100 | > 100 | > 100
3 | CC(=O)N=C1N(/C=C2\C(=O)Oc3ccccc3C2=O)C(=O)/C(=C/c2ccc(OC(C)=O)cc2)N1C | > 100 | > 100 | > 100 | > 100 | > 100 | > 100 | > 100 | > 100 | > 100 | > 100
4 | COc1ccc2c(CCN)c(C(=O)O)[nH]c2c1 | > 100 | > 100 | > 100 | > 100 | > 100 | > 100 | > 100 | > 100 | > 100 | > 100
5 | CC(=O)OCCOCn1c2c(c(=S)[nH]c1=O)CCC2 | > 100 | > 100 | > 100 | > 100 | > 100 | > 100 | > 100 | > 100 | > 100 | > 100
6 | O=C(c1ccccc1)N1CCN(C(=S)N(C(=O)c2ccccc2)c2ccccc2)C1=S | 7.5 | 14.5 | 3.81 | > 42.5 | 17.1 | 11.6 | 6.9 | 15.4 | 9.55 | 22.4
7 | [N-]=[N+]=C1N=CN=C1c1ncn[nH]1 | 37.5 | > 100 | 40.5 | > 100 | > 100 | > 100 | > 100 | > 100 | > 100 | > 100
8 | CN(CCn1cnc2c1c(=O)n(C)c(=O)n2C)C1CCCCC1 | > 100 | > 100 | > 100 | > 100 | > 100 | > 100 | > 100 | > 100 | > 100 | > 100
9 | COC(=O)CCC(=O)NC1=C(Nc2ccc(OC)cc2)C(=O)c2ccccc2C1=O | 40.2 | 35.7 | > 68 | 27.3 | 3.44 | 22.7 | 24.3 | 12.6 | 31.4 | 16.1
10 | COC(=O)CCC(=O)NC1=C(NCc2ccccc2)C(=O)c2ccccc2C1=O | 72.8 | > 100 | > 100 | 85.7 | 29.6 | 64.6 | 50 | 33.3 | > 100 | 34.1
11 | CCSc1sc(=Nc2ccc(N=c3sc(C)c(SC)s3)cc2)sc1-c1ccc(C)cc1 | > 100 | > 100 | > 100 | > 100 | > 100 | > 100 | > 100 | > 100 | > 100 | > 100
12 | CCCN(CCCC(NC(C)=O)C(=O)NCc1ccccc1)C(=O)N(CCCl)N=O (stereo not given) | 62.4 | 26.4 | 30.6 | > 100 | > 100 | 22.9 | 29.2 | 53.3 | 35.1 | 47.6
13 | COc1ccc2nc3c([N+](=O)[O-])ccc4c3c(c2c1)NCCN4CCO | 3.06 | 1.91 | 1.25 | 2.05 | 1.64 | 2.45 | 1.24 | 2.91 | 2.03 | 1.5
14 | COC(=O)NCCc1[nH]nc2c1C(=O)C=C(N1CCOCC1)C2=O | > 100 | > 100 | > 100 | > 100 | > 100 | > 100 | > 100 | > 100 | > 100 | > 100
15 | C[C@H](CCC(=O)NCCS(=O)(=O)O)[C@H]1CC[C@H]2[C@@H]3CC[C@@H]4C[C@H](O)CC[C@]4(C)[C@H]3CC[C@]12C | > 100 | > 100 | > 100 | > 100 | > 100 | > 100 | > 100 | > 100 | > 100 | > 100
16 | CCCCC(C#N)(OP1(=O)OC(c2ccccc2)C(C)N1C)c1ccccc1 (stereo not given) | 42.5 | 28.9 | 36 | 30.2 | 31.3 | 41.9 | 33.7 | 31 | 31.9 | 33.7
17 | COC(=O)C(Cc1c(C2Nc3ccccc3C2CC(NC(=O)CNC(C)=O)C(=O)OC)[nH]c2ccccc12)NC(=O)CNC(C)=O (stereo not given) | > 100 | > 100 | > 100 | > 100 | > 100 | > 100 | > 100 | > 100 | > 100 | > 100
